Assay results as given in the CheMixHub viscosity set.
± gives the uncertainty stated by the source.

Assay: xn = mol fraction of the nth substance listed

OCCOCCOCCOCCOCCO + O
viscosity [mPa·s], 100 kPa
Conditions | 293.15 K | 298.15 K | 303.15 K | 308.15 K | 313.15 K | 318.15 K | 323.15 K
x2 = 0.023 | 70.88 ± 2 | 54.12 ± 1.2 | 42.28 ± 0.79 | 33.63 ± 0.53 | 27.22 ± 0.37 | 22.34 ± 0.29 | 18.57 ± 0.24
x2 = 0.081 | 72.83 ± 2.1 | 55.72 ± 1.2 | 43.21 ± 0.79 | 34.21 ± 0.53 | 27.55 ± 0.36 | 22.56 ± 0.28 | 18.68 ± 0.23
x2 = 0.144 | 71.38 ± 2 | 54.33 ± 1.2 | 42.28 ± 0.77 | 33.53 ± 0.52 | 27.01 ± 0.36 | 22.11 ± 0.28 | 18.34 ± 0.23
x2 = 0.166 | 70.74 ± 2 | 53.66 ± 1.4 | 41.76 ± 0.86 | 33.1 ± 0.55 | 26.67 ± 0.37 | 21.83 ± 0.27 | 18.08 ± 0.21

CCCCCCCCCCO + CCCCCCCCCC
298.15 K, 101.3 kPa
Conditions | viscosity [mPa·s]
x1 = 0.0518 | 0.924 ± 0.016
x1 = 0.1069 | 1.021 ± 0.016
x1 = 0.1649 | 1.168 ± 0.018
x1 = 0.2141 | 1.308 ± 0.019
x1 = 0.2591 | 1.457 ± 0.021
x1 = 0.3013 | 1.618 ± 0.022
x1 = 0.4008 | 2.078 ± 0.026
x1 = 0.5047 | 2.74 ± 0.032
x1 = 0.6063 | 3.619 ± 0.038
x1 = 0.6847 | 4.535 ± 0.045
x1 = 0.8044 | 6.474 ± 0.056
x1 = 0.8482 | 7.392 ± 0.061
x1 = 0.8943 | 8.5 ± 0.066
x1 = 0.9494 | 10.05 ± 0.073

CCCCCCCCCCCC + COC(=O)OC
298.15 K, 101.3 kPa
Conditions | viscosity [mPa·s]
x2 = 0.0451 | 1.266 ± 0.017
x2 = 0.0943 | 1.206 ± 0.016
x2 = 0.1375 | 1.157 ± 0.015
x2 = 0.225 | 1.079 ± 0.014
x2 = 0.3467 | 0.977 ± 0.013
x2 = 0.4784 | 0.877 ± 0.012
x2 = 0.6212 | 0.775 ± 0.01
x2 = 0.7364 | 0.697 ± 0.009
x2 = 0.8599 | 0.633 ± 0.008
x2 = 0.9441 | 0.602 ± 0.008

CC(C)[C@@H]1CC[C@@H](C)C[C@H]1O + CCCCCCO
Conditions | viscosity [mPa·s]
298.15 K, 101.33 kPa, x1 = 0.5 | 22.95

CCOC(=O)OCC + CC(=O)N(C)C
298.15 K, 101 kPa
Conditions | viscosity [mPa·s]
x1 = 0.1371 | 0.925 ± 0.007
x1 = 0.2045 | 0.912 ± 0.007
x1 = 0.2821 | 0.896 ± 0.007
x1 = 0.3603 | 0.881 ± 0.007
x1 = 0.4462 | 0.865 ± 0.007
x1 = 0.5333 | 0.849 ± 0.007
x1 = 0.6265 | 0.831 ± 0.007
x1 = 0.7265 | 0.811 ± 0.007
x1 = 0.7839 | 0.8 ± 0.006
x1 = 0.8296 | 0.79 ± 0.006
x1 = 0.8887 | 0.778 ± 0.006

CC(C)CCC[C@@H](C)[C@H]1CC[C@H]2[C@@H]3CC=C4C[C@@H](O)CC[C@]4(C)[C@H]3CC[C@]12C + Cc1ccccc1
viscosity [mPa·s], 101.33 kPa
Conditions | x1 = 0.0038 | x1 = 0.00638 | x1 = 0.01075 | x1 = 0.01353 | x1 = 0.01707 | x1 = 0.02159 | x1 = 0.02737 | x1 = 0.03485
298 K | 0.567 ± 0.007 | 0.579 ± 0.007 | 0.604 ± 0.008 | 0.616 ± 0.008 | 0.639 ± 0.008 | 0.672 ± 0.008 | 0.716 ± 0.009 | 0.787 ± 0.01
303 K | 0.534 ± 0.007 | 0.546 ± 0.007 | 0.569 ± 0.007 | 0.579 ± 0.007 | 0.599 ± 0.008 | 0.628 ± 0.008 | 0.668 ± 0.008 | 0.731 ± 0.009
313 K | 0.478 ± 0.006 | 0.488 ± 0.007 | 0.508 ± 0.007 | 0.515 ± 0.007 | 0.533 ± 0.007 | 0.556 ± 0.007 | 0.591 ± 0.008 | 0.64 ± 0.008
323 K | 0.432 ± 0.006 | 0.44 ± 0.006 | 0.458 ± 0.006 | 0.464 ± 0.006 | 0.476 ± 0.006 | 0.497 ± 0.007 | 0.523 ± 0.007 | 0.562 ± 0.007

CCOC(=O)OCC + CCCCO
101 kPa
Conditions | viscosity [mPa·s]
293.15 K, x1 = 0.05477 | 2.407
293.15 K, x1 = 0.1013 | 2.092
293.15 K, x1 = 0.1989 | 1.633
293.15 K, x1 = 0.3128 | 1.321
293.15 K, x1 = 0.4106 | 1.145
293.15 K, x1 = 0.5009 | 1.023
293.15 K, x1 = 0.6135 | 0.901
293.15 K, x1 = 0.7033 | 0.838
293.15 K, x1 = 0.7967 | 0.806
293.15 K, x1 = 0.8803 | 0.807
293.15 K, x1 = 0.9292 | 0.802
303.15 K, x1 = 0.1264 | 1.549
303.15 K, x1 = 0.2963 | 1.093
303.15 K, x1 = 0.4038 | 0.957
303.15 K, x1 = 0.5148 | 0.867
303.15 K, x1 = 0.6085 | 0.808
303.15 K, x1 = 0.7037 | 0.759
303.15 K, x1 = 0.8066 | 0.717
303.15 K, x1 = 0.9043 | 0.701
313.15 K, x1 = 0.04531 | 1.564
313.15 K, x1 = 0.2917 | 0.947
313.15 K, x1 = 0.4025 | 0.819
313.15 K, x1 = 0.5009 | 0.743
313.15 K, x1 = 0.6129 | 0.679
313.15 K, x1 = 0.7014 | 0.645
313.15 K, x1 = 0.81 | 0.628
313.15 K, x1 = 0.9091 | 0.619

COCCOCCO + O=C1CCCN1
298.15 K, 101 kPa
Conditions | viscosity [mPa·s]
x1 = 0.0019 | 14.15 ± 0.3
x1 = 0.0054 | 14.04 ± 0.3
x1 = 0.0129 | 13.78 ± 0.29
x1 = 0.0209 | 13.49 ± 0.28
x1 = 0.0311 | 13.16 ± 0.28
x1 = 0.0482 | 12.66 ± 0.27
x1 = 0.0682 | 12.11 ± 0.26
x1 = 0.0864 | 11.61 ± 0.24
x1 = 0.1139 | 10.99 ± 0.23
x1 = 0.1615 | 9.962 ± 0.21
x1 = 0.2074 | 9.178 ± 0.2
x1 = 0.2531 | 8.449 ± 0.18
x1 = 0.2817 | 8.045 ± 0.17
x1 = 0.3289 | 7.543 ± 0.16
x1 = 0.3814 | 7.009 ± 0.15
x1 = 0.4684 | 6.246 ± 0.14
x1 = 0.489 | 6.106 ± 0.13
x1 = 0.5396 | 5.741 ± 0.13
x1 = 0.6097 | 5.295 ± 0.12
x1 = 0.6687 | 4.976 ± 0.11
x1 = 0.7169 | 4.749 ± 0.11
x1 = 0.7652 | 4.502 ± 0.1
x1 = 0.8144 | 4.294 ± 0.097
x1 = 0.8697 | 4.069 ± 0.092
x1 = 0.8962 | 3.972 ± 0.09
x1 = 0.9239 | 3.85 ± 0.09
x1 = 0.9469 | 3.745 ± 0.085
x1 = 0.9719 | 3.658 ± 0.084
x2 = 0.0058 | 3.533 ± 0.081
x2 = 0.0141 | 3.561 ± 0.082

C=CCC[n+]1ccn(C)c1.[Br-] + O
viscosity [mPa·s], 101.33 kPa
Conditions | x1 = 0.0009034 | x1 = 0.00189 | x1 = 0.003585 | x1 = 0.005487 | x1 = 0.007167 | x1 = 0.008848
293.15 K | 1.018 ± 0.031 | 1.037 ± 0.032 | 1.071 ± 0.033 | 1.102 ± 0.034 | 1.136 ± 0.035 | 1.164 ± 0.036
298.15 K | 0.904 ± 0.028 | 0.92 ± 0.028 | 0.95 ± 0.029 | 0.977 ± 0.03 | 1.007 ± 0.031 | 1.031 ± 0.032
303.15 K | 0.809 ± 0.025 | 0.824 ± 0.025 | 0.85 ± 0.026 | 0.874 ± 0.027 | 0.901 ± 0.028 | 0.922 ± 0.028
308.15 K | 0.73 ± 0.022 | 0.742 ± 0.023 | 0.765 ± 0.023 | 0.788 ± 0.024 | 0.811 ± 0.025 | 0.83 ± 0.025
313.15 K | 0.662 ± 0.02 | 0.673 ± 0.021 | 0.694 ± 0.021 | 0.714 ± 0.022 | 0.735 ± 0.023 | 0.753 ± 0.023
